Test results from patent US4889854A, “Tricyclic pyridone derivatives” (Hoffman-La Roche Inc., priority 1987, dated 1989).

Tests used:
[1] = tested on: spasmodic seizures caused by pentetrazole; assay: antipentetrazole test (oral administration, mice); format: in vivo; conditions: Mus musculus, 30 minutes before 120 mg/kg pentetrazole i.p., dosage which protects 50% of the animals, Probit method
Procedure: As mentioned earlier, the compounds of formula A have valuable pharmacological properties. In particular, they display pronounced muscle relaxant, sedative-hypnotic, anticonvulsive and/or anxiolytic properties and have only a low toxicity.
(§1) In this animal experiment, the compound under investigation is administered orally to mice and 30 minutes later they are administered intraperitoneally 120 mg/kg of pentetrazole, which causes emprosthotonus and tonic stretchings of the fore and/or hind limbs in unprotected animals, 1-4 minutes after the injection. Ten (10) experimental animals are used per dosage of test substance. After counting the protected experimental animals, the ED50 is determined according to the known Probit method. The ED50 is that dosage which protects 50% of the experimental animals from the spasmodic seizures caused by pentetrazole. The results which have been obtained with representative members of the class of compound defined by formula A in the experiment described previously are compiled in the following Table. Moreover, the Table contains data concerning the acute toxicity (LD50) of some of these compounds in mg/kg in the case of single oral administration to mice.

[2] = acute toxicity, single oral administration to mice; conditions: mouse, in vivo, single oral administration (p.o.)
Procedure: as §1

SMILES	ED50 [1]	LD50 [2]
COC1CN(C(=O)c2cc(-c3ccccc3)c(=O)n3c2-c2sccc2C(C)N3)C1 (racemic) [F, rac-1-[(4,5-dihydro-4-methyl-7-oxo-8-phenyl-7H-pyrido[1,2-b]thieno[2,3-d]pyridazin-10-yl)carbonyl]-3-methoxyazetidine]	3.3 mg/kg	3000 mg/kg
COC1CN(C(=O)c2cc(-c3ccccc3)c(=O)n3c2-c2cc(Cl)ccc2CN3)C1 [C, 1-[(10-chloro-6,7-dihydro-4-oxo-3-phenyl-4H-pyrido[2,1-a]phthalazin-1-yl)carbonyl]-3-methoxyazetidine]	0.56 mg/kg	–
O=C(c1cc(-c2ccccc2)c(=O)n2c1-c1cc(Cl)ccc1CN2)N1CCOCC1 [Compound A, 4-[(10-chloro-6,7-dihydro-4-oxo-3-phenyl-4H-pyrido[2,1-a]phthalazin-1-yl)carbonyl]morpholine]	3.1 mg/kg	> 3000 mg/kg
COC[C@H]1CCCN1C(=O)c1cc(-c2ccccc2)c(=O)n2c1-c1cc(Cl)ccc1CN2 [Compound B, (R)-1-[(10-chloro-6,7-dihydro-4-oxo-3-phenyl-4H-pyrido[2,1-a]phthalazin-1-yl)carbonyl]-2-(methoxymethyl)pyrrolidine]	0.44 mg/kg	> 3000 mg/kg
CN(C)C(=O)c1cc(-c2ccccc2)c(=O)n2c1-c1cc(Cl)ccc1CN2 [D, 10-chloro-6,7-dihydro-N,N-dimethyl-4-oxo-3-phenyl-4H-pyrido[2,1-a]-phthalazine-1-carboxamide]	0.23 mg/kg	–
CO[C@@H]1CCN(C(=O)c2cc(-c3ccccc3)c(=O)n3c2-c2sccc2CN3)C1 [E, (R)-1-[(4,5-dihydro-7-oxo-8-phenyl-7H-pyrido[1,2-b]thieno[2,3-d]pyridazin-10-yl)carbonyl]-3-methoxypyrrolidine]	1.4 mg/kg	–
COC1CN(C(=O)c2cc(-c3ccccc3)c(=O)n3c2-c2sccc2CN3C)C1 [G, 1-[(4,5-dihydro-5-methyl-7-oxo-8-phenyl-7H-pyrido[1,2-b]thieno[2,3-d]pyridazin-10-yl)carbonyl]-3-methoxyazetidine]	8.2 mg/kg	> 5000 mg/kg
CN(C)C(=O)c1cc(-c2ccccc2)c(=O)n2c1-c1sccc1CN2 [H, 4,5-dihydro-N,N-dimethyl-7-oxo-8-phenyl-7H-pyrido[1,2-b]thieno[2,3-d]pyridazine-10-carboxamide]	0.29 mg/kg	> 5000 mg/kg
